Assay results published in patent publication US20100256206A1, “CRYSTALLINE FORM B OF OLMESARTAN MEDOXOMIL” (priority 2007, published 2010).

Legend:
[1] = cited from earlier work
[2] = Thermo-Gravimetric Analysis (TGA) of the powder; format: physicochemical; settings: at processing temperatures and storage temperatures; TGA 25-300° C. @ 5° C./min
Experimental: The powder obtained by the process according to the invention as described above and in the following examples was also subjected to Thermo-Gravimetric Analysis (TGA). […] Indeed, the DSC and XRPD experiments indicate that no polymorphic transition of crystalline form B occurs up to temperatures of ca. 170° C.
The TGA analysis data was obtained using a Mettler-Toledo TGA851e apparatus under the following parameters:
Temperature profile: 25-300° C. @ 5° C./min
Nitrogen purge gas, 50 ml/min
Aluminium pan, […], pierced prior to scan

[3] = DSC and XRPD experiments, polymorphic transition; format: physicochemical
Experimental: The X-ray powder diffraction data was obtained by methods known in the art using a Bruker D8 Advance Powder Diffractometer with scintillation detector under the following parameters: Reflection mode Cu Kα radiation (1.5406 Å) Scanning range: 2-50 °2θ Step size: 0.02 °2θ Time per step: 2 s The powder obtained by the process according to the invention as described above and in the following examples was also subjected to Differential Scanning Calorimetry (DSC). The DSC thermal analysis data was obtained using a Mettler-Toledo DSC821e apparatus under the following parameters: • Temperature profile: 25-300° C. @ 5° C./min • Nitrogen purge gas, 50 ml/min • Aluminium pan, […], pierced prior to scan The powder obtained by the process according to the invention as described above and in the following examples was also subjected to Thermo-Gravimetric Analysis (TGA). […] Indeed, the DSC and XRPD experiments indicate that no polymorphic transition of crystalline form B occurs up to temperatures of ca. 170° C.

Structure (SMILES)	aqueous solubility [1]	chemical stability, degradation by conversion to other polymorphic forms [2]	temperature up to which no polymorphic transition occurs [3]
CCCc1nc(C(C)(C)O)c(C(=O)OCc2oc(=O)oc2C)n1Cc1ccc(-c2ccccc2-c2nnn[nH]2)cc1 [Olmesartan medoxomil, 2,3-dihydroxy-2-butenyl 4-(1-hydroxy-1-methylethyl)-2-propyl-1-[p-(o-tetrazol-5-yl-phenyl)benzyl]imidazole-5-carboxylate cyclic 2,3-carbonate]	very low		
CCCc1nc(C(C)(C)O)c(C(=O)OCc2oc(=O)oc2C)n1Cc1ccc(-c2ccccc2-c2nnn[nH]2)cc1 [crystalline form B, 2,3-dihydroxy-2-butenyl 4-(1-hydroxy-1-methylethyl)-2-propyl-1-[p-(o-tetrazol-5-yl-phenyl)benzyl]imidazole-5-carboxylate cyclic 2,3-carbonate]		chemically stable	ca. 170 °C
